Results: patent US20240398784A1, “C-LINKED ISOQUINOLINE AMIDES AS LRRK2 INHIBITORS, PHARMACEUTICAL COMPOSITIONS, AND USES THEREOF” (Merck Sharp & Dohme LLC, priority 2021, published 2024)

Target: LRRK2 G2019S (Homo sapiens, UniProt Q5S007, G2019S)
Assay: LRRK2 G2019S Km ATP LanthaScreen assay
Assay type: biochemical
Conditions: read-out: LRRK2 pIC50 (converted)

Chain of LRRK2 G2019S (Q5S007 whole entry G2019S): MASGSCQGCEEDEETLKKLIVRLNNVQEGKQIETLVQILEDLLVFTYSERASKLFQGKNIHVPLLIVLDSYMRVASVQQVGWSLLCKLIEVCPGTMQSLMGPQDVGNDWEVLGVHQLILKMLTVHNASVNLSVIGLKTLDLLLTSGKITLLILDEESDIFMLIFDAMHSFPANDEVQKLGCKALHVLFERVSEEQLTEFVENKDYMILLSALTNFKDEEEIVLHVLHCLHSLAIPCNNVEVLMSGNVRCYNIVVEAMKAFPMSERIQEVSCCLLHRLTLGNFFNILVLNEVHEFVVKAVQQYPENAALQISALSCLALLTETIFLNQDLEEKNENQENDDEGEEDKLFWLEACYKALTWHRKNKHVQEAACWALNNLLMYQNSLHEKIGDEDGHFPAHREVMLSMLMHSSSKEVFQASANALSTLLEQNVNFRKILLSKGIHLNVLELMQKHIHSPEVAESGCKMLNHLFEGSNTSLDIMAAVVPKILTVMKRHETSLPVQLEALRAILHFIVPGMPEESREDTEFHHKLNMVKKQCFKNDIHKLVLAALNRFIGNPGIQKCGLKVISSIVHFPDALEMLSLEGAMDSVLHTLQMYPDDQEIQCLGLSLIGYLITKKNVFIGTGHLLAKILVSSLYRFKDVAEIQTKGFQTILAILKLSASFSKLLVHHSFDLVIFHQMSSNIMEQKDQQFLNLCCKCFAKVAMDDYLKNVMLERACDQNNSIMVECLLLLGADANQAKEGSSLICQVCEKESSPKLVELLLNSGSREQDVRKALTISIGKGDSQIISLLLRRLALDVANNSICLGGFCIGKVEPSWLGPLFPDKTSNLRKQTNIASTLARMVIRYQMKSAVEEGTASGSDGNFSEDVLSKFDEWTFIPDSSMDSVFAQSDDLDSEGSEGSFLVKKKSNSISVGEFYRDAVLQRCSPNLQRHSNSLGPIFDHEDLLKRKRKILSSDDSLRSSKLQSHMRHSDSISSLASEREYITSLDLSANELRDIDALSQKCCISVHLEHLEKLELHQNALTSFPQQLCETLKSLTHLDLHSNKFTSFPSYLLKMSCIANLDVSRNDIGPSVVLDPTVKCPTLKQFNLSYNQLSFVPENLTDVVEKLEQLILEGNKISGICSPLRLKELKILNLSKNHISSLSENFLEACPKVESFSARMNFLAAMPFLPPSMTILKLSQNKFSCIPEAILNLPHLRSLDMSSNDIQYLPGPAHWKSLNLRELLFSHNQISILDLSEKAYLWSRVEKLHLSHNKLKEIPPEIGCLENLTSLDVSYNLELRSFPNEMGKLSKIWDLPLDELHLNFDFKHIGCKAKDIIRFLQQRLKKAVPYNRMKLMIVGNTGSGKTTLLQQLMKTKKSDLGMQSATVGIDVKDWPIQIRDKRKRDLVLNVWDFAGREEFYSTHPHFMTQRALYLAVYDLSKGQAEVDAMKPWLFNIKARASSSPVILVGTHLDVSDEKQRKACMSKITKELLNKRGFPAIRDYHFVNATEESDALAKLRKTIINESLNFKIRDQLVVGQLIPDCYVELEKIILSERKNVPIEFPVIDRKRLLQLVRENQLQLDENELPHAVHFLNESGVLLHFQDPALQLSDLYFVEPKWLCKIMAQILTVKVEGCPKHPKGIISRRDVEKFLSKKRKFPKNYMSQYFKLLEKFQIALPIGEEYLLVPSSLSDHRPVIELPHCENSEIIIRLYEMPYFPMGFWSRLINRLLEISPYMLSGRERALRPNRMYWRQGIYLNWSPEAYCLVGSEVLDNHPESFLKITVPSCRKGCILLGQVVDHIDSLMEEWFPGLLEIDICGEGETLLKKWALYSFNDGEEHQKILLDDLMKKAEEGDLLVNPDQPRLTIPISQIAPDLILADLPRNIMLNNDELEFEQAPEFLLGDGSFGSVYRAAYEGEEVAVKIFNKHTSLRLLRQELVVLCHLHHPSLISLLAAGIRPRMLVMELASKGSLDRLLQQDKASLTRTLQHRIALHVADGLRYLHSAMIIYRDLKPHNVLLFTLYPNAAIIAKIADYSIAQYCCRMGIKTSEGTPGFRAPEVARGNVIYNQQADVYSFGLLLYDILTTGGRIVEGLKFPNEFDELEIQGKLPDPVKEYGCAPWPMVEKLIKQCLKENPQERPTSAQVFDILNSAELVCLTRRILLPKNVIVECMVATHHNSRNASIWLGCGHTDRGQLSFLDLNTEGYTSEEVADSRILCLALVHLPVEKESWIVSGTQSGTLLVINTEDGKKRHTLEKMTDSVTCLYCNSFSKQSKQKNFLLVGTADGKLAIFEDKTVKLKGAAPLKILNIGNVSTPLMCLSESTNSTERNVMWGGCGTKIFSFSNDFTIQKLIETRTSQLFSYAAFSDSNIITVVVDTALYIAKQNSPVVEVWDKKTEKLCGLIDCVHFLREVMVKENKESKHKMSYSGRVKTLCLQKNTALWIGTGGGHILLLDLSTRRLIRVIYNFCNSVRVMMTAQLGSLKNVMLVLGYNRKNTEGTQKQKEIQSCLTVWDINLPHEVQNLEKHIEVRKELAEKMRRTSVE

| SMILES | IC50 [nM] |
| --- | --- |
| CC1(N2CCC(c3cc4cc(NC(=O)C5CC5c5cc(F)ccn5)ncc4cc3Cl)CC2)COCC1O (single isomer, unassigned) [Ex-4.40, N-(7-chloro-6-(1-(4-hydroxy-3-methyltetrahydrofuran-3-yl)piperidin-4-yl)isoquinolin-3-yl)-2-(4-fluoropyridin-2-yl)cyclopropane-1-carboxamide] | 257 |
| Cc1cc2cnc(NC(=O)C3CC3c3ccccn3)cc2cc1C1CCN(C2(C)CCOC2)CC1 (single isomer, unassigned) [Ex-16.11, N-(7-methyl-6-(1-(3-methyltetrahydrofuran-3-yl)piperidin-4-yl)isoquinolin-3-yl)-2-(pyridin-2-yl)cyclopropane-1-carboxamide] | 0.955 |
| CC1(N2CCC(c3cc4cc(NC(=O)C5CC5c5ccccn5)ncc4cc3Cl)CC2)CCOC1 (single isomer, unassigned) [Ex-6.33, N-(7-chloro-6-(1-(3-methyltetrahydrofuran-3-yl)piperidin-4-yl)isoquinolin-3-yl)-2-(pyridin-2-yl)cyclopropane-1-carboxamide] | 87.1 |
| O=C(Nc1cc2cc(C3CCC(N4CC(F)C4)CC3)c(Cl)cc2cn1)C1CC12CCOCC2 (single isomer, unassigned) [Ex-11.6, N-(7-chloro-6-(4-(3-fluoroazetidin-1-yl)cyclohexyl)isoquinolin-3-yl)-6-oxaspiro[2.5]octane-1-carboxamide] | 3.8 |
| CC(C)(O)C1CC1C(=O)Nc1cc2cc(C3CCN(C4(C)COCC4F)CC3)c(Cl)cc2cn1 (single isomer, unassigned) [Ex-6.28, N-(7-chloro-6-(1-(4-fluoro-3-methyltetrahydrofuran-3-yl)piperidin-4-yl)isoquinolin-3-yl)-2-(2-hydroxypropan-2-yl)cyclopropane-1-carboxamide] | 0.363 |
| CC1(C)CCC(C(=O)Nc2cc3cc(C4CCC(N5CCC(F)C5)CC4)c(Cl)cc3cn2)CO1 (single isomer, unassigned) [Ex-5.21, N-(7-chloro-6-(4-(3-fluoropyrrolidin-1-yl)cyclohexyl)isoquinolin-3-yl)-6,6-dimethyltetrahydro-2H-pyran-3-carboxamide] | 3630 |
| CCC1C(C(=O)Nc2cc3cc(C4(C#N)CC45CC5)ccc3cn2)C1c1cnn(C)c1 (single isomer, unassigned) [Ex-1.25, (1R,3R or 1S,3S)-N-(6-((R or S)-1-cyanospiro[2.2]pentan-1-yl)isoquinolin-3-yl)-2-ethyl-3-(1-methyl-1H-pyrazol-4-yl)cyclopropane-1-carboxamide] | 0.661 |
| COC1COCC1N1CCC(c2cc3cc(NC(=O)C4CC45CCOCC5)ncc3cc2Cl)CC1 (single isomer, unassigned) [Ex-6.52, N-(7-chloro-6-(1-(4-methoxytetrahydrofuran-3-yl)piperidin-4-yl)isoquinolin-3-yl)-6-oxaspiro[2.5]octane-1-carboxamide] | 0.2 |
| CC1(N2CCC(c3cc4cc(NC(=O)C5CC56CCC(F)(F)CC6)ncc4cc3Cl)CC2)COCC1O (stereo not shown) [Ex-2.16] | 0.407 |
| Cc1cc2cnc(NC(=O)C3CC3c3ccccn3)cc2cc1C1CCN(C2(C)CCOC2)CC1 (single isomer, unassigned) [Ex-16.12, N-(7-methyl-6-(1-(3-methyltetrahydrofuran-3-yl)piperidin-4-yl)isoquinolin-3-yl)-2-(pyridin-2-yl)cyclopropane-1-carboxamide] | 0.0813 |
| CC(C(=O)Nc1cc2cc(C3(C#N)CC34CC4)ccc2cn1)c1cnn(C)c1 (stereo not shown) [Ex-2.111] | 2.24 |
| CC(C(=O)Nc1cc2cc(C3(C#N)CC34CC4)ccc2cn1)c1cnn(C)c1 (stereo not shown) [Ex-2.108] | 2.95 |
| N#CC1(c2ccc3cnc(NC(=O)C4CC45CCOC5)cc3c2)CC12CC2 (stereo not shown) [Ex-2.64] | 10.5 |
| CC1OCCC1N1CCC(c2cc3cc(NC(=O)C4CC4)ncc3cc2Cl)CC1 (single isomer, unassigned) [Ex-9.10, N-(7-chloro-6-(1-(2-methyltetrahydrofuran-3-yl)piperidin-4-yl)isoquinolin-3-yl)cyclopropanecarboxamide] | 38.9 |
| CC(C)c1cc2cc(NC(=O)C3CC3c3cnn(C)c3)ncc2cc1Cl (stereo not shown) [Ex-21.1, N-(7-chloro-6-isopropylisoquinolin-3-yl)-2-(1-methyl-1H-pyrazol-4-yl)cyclopropane-1-carboxamide] | 0.0813 |
| CC1C(C(=O)Nc2cc3cc(C4CCN(C5(C)COCC5O)CC4)c(Cl)cc3cn2)C12CCOCC2 (single isomer, unassigned) [Ex-10.6, N-(7-chloro-6-(1-(4-hydroxy-3-methyltetrahydrofuran-3-yl)piperidin-4-yl)isoquinolin-3-yl)-2-methyl-6-oxaspiro[2.5]octane-1-carboxamide] | 11 |
| Cc1cc2cnc(NC(=O)C3CC34CCOCC4)cc2cc1C1CCN(C2(C)COCC2O)CC1 (single isomer, unassigned) [Ex-15.16, N-(6-(1-(4-hydroxy-3-methyltetrahydrofuran-3-yl)piperidin-4-yl)-7-methylisoquinolin-3-yl)-6-oxaspiro[2.5]octane-1-carboxamide] | 0.0813 |

| SMILES | IC50 [nM] |
| --- | --- |
| CC(C)(O)C1CC1C(=O)Nc1cc2cc(C3CCN(C4(C)CCOC4)CC3)c(Cl)cc2cn1 (stereo not shown) [Ex-2.24] | 0.257 |
| CC1(N2CCC(c3cc4cc(NC(=O)C5CC56CCOC6)ncc4cc3Cl)CC2)COCC1F (single isomer, unassigned) [Ex-6.8, (R or S)-N-(7-chloro-6-(1-((3R,4R or 3S,4S)-4-fluoro-3-methyltetrahydrofuran-3-yl)piperidin-4-yl)isoquinolin-3-yl)-5-oxaspiro [2.4] heptane-1-carboxamide] | 34.7 |
| N#CC1(c2ccc3cnc(NC(=O)C4CC(OC(F)F)C4)cc3c2)CC12CC2 (single isomer, unassigned) [Ex-2.6] | 9.12 |
| Cc1cc2cnc(NC(=O)C3CC3C(C)(C)F)cc2cc1C1CCN(C2(C)COCC2O)CC1 (single isomer, unassigned) [Ex-15.6, 2-(2-fluoropropan-2-yl)-N-(6-(1-(4-hydroxy-3-methyltetrahydrofuran-3-yl)piperidin-4-yl)-7-methylisoquinolin-3-yl)cyclopropane-1-carboxamide] | 0.501 |
| CC1(N2CCC(c3cc4cc(NC(=O)C5CC5c5cccs5)ncc4cc3Cl)CC2)COCC1O (single isomer, unassigned) [Ex-4.60, N-(7-chloro-6-(1-(4-hydroxy-3-methyltetrahydrofuran-3-yl)piperidin-4-yl)isoquinolin-3-yl)-2-(thiophen-2-yl)cyclopropane-1-carboxamide] | 0.0813 |
| CN1CCO[C@@H](C(=O)Nc2cc3cc(C4(C#N)CC45CC5)ccc3cn2)C1 (single isomer, unassigned) [Ex-1.31, (2R)-N-(6-((R or S)-1-cyanospiro[2.2]pentan-1-yl)isoquinolin-3-yl)-4-methylmorpholine-2-carboxamide] | 11.7 |
| CC1(N2CCC(c3cc4cc(NC(=O)C5C6CCOCC65)ncc4cc3Cl)CC2)COCC1O (single isomer, unassigned) [Ex-4.34, N-(7-chloro-6-(1-(4-hydroxy-3-methyltetrahydrofuran-3-yl)piperidin-4-yl)isoquinolin-3-yl)-3-oxabicyclo[4.1.0]heptane-7-carboxamide] | 1.38 |
| CC1CC1(C#N)c1ccc2cnc(NC(=O)C3CC3)cc2c1 (single isomer, unassigned) [Ex-18.7, (R or S)-N-(6-(1-cyano-2-methylcyclopropyl)isoquinolin-3-yl)cyclopropanecarboxamide] | 4.57 |
| CCC1C(C(=O)Nc2cc3cc(C4CCC(N5CC(F)C5)CC4)c(Cl)cc3cn2)C1c1cnn(C)c1 (single isomer, unassigned) [Ex-11.7, N-(7-chloro-6-(4-(3-fluoroazetidin-1-yl)cyclohexyl)isoquinolin-3-yl)-2-ethyl-3-(1-methyl-1H-pyrazol-4-yl)cyclopropane-1-carboxamide] | 0.282 |
| CC(C)Cn1nccc1C1CC1C(=O)Nc1cc2cc(C3CCN(C4(C)COCC4O)CC3)c(Cl)cc2cn1 (single isomer, unassigned) [Ex-4.61, N-(7-chloro-6-(1-(4-hydroxy-3-methyltetrahydrofuran-3-yl)piperidin-4-yl)isoquinolin-3-yl)-2-(1-isobutyl-1H-pyrazol-5-yl)cyclopropane-1-carboxamide] | 72.4 |
| CC1(N2CCC(c3cc4cc(NC(=O)C5C6CCOCC65)ncc4cc3Cl)CC2)COCC1F (single isomer, unassigned) [Ex-6.40, N-(7-chloro-6-(1-(4-fluoro-3-methyltetrahydrofuran-3-yl)piperidin-4-yl)isoquinolin-3-yl)-3-oxabicyclo[4.1.0]heptane-7-carboxamide] | 0.0813 |
| CC1CC1(C#N)c1ccc2cnc(NC(=O)C3CC3)cc2c1 (single isomer, unassigned) [Ex-18.5, (R or S)-N-(6-(1-cyano-2-methylcyclopropyl)isoquinolin-3-yl)cyclopropanecarboxamide] | 5.75 |
| CC1(C)CC(C(=O)Nc2cc3cc(C4CCC(N5CCC(F)C5)CC4)c(Cl)cc3cn2)CCO1 (single isomer, unassigned) [Ex-5.10, N-(7-chloro-6-(4-(3-fluoropyrrolidin-1-yl)cyclohexyl)isoquinolin-3-yl)-2,2-dimethyltetrahydro-2H-pyran-4-carboxamid] | 3.02 |
| Cn1ccc(C2CC2C(=O)Nc2cc3cc(C4(C#N)CC45CC5)ccc3cn2)n1 (stereo not shown) [Ex-2.71] | 5.75 |
| CC1(N2CCC(c3cc4cc(NC(=O)Cc5cccnc5)ncc4cc3Cl)CC2)COCC1O (stereo not shown) [Ex-3.7] | 0.0813 |
| CC1(N2CCC(c3cc4cc(NC(=O)C5CC56CCOC6)ncc4cc3Cl)CC2)COCC1F (single isomer, unassigned) [Ex-6.5, (R or S)-N-(7-chloro-6-(1-((3R,4R or 3S,4S)-4-fluoro-3-methyltetrahydrofuran-3-yl)piperidin-4-yl)isoquinolin-3-yl)-5-oxaspiro [2.4] heptane-1-carboxamide] | 0.537 |
| CC1(N2CCC(c3cc4cc(NC(=O)C5CC56CCOCC6)ncc4cc3Cl)CC2)COCC1F (single isomer, unassigned) [Ex-6.25, N-(7-chloro-6-(1-(4-fluoro-3-methyltetrahydrofuran-3-yl)piperidin-4-yl)isoquinolin-3-yl)-6-oxaspiro[2.5]octane-1-carboxamide] | 1.66 |
